Measured values: patent US20250195521A1 (Revolution Medicines, Inc., priority 2020, published 2025)
pEC50, pIC50: −log10 of the molar value. Where two headings read alike, the source gives them in different places.

Assays:
[1] = biological target: K-Ras G12C(GMP-PNP) binding to BRAF RBD (Homo sapiens (Human), UniProt P01116+P62937, G12C); experiment: Disruption of BRAF RBD interaction with K-Ras (FRET / MOA assay), K-Ras G12C; assay type: biochemical; details: read-out: KRAS G12C FRET IC50
Summary of the method: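 Cpd 10-pt 3-fold dilution, top 30 μM final; Ras/CypA/BRAF RBD mix 3 h, 25° C. Add anti-His Eu-W1024 10 nM + anti-GST APC 50 nM final, 1.5 h. Readout TR-FRET ratio decrease vs DMSO → IC50.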

[2] = system: Capan-1 cells (K-Ras G12V); experiment: CellTiter-Glo cell viability, Capan-1; assay type: cell-based, human; details: K-Ras G12V, 5-day treatment, read-out: Capan-1 Cell Viability IC50
Summary of the method: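 Endpoint: CellTiter-Glo luminescence on day 5, following ~30 min at room temperature. Data as (sample/mean DMSO)×100, four-parameter logistic fit.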

[3] = system: K-Ras G12C (NCI-H358 cells); experiment: Potency assay: pERK in NCI-H358 cells; assay type: cell-based, human; details: NCI-H358 cells, 4 hours, read-out: pERK EC50 (H358 KRAS G12C)
Summary of the method: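 Cells plated the day before were exposed for 4 h at 37° C, 5% CO2 to a 10-point, 3-fold DMSO dilution series (10 mM top stock), in duplicate. Phospho-ERK was read by AlphaLISA SureFire Ultra or by In-Cell Western with DRAQ5 DNA stain, and IC50 came from a 4-parameter sigmoidal fit.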

[4] = system: NCI-H358 (K-Ras G12C); experiment: CellTiter-Glo cell viability assay, NCI-H358; assay type: cell-based, human; details: 5-day treatment, read-out: H358 Cell Viability assay data (K-Ras G12C, IC50)
Summary of the method: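 After direct compound addition, plates were incubated to day 5 and equilibrated at room temperature for about 30 minutes before CellTiter-Glo reading. Values derive from luminescence relative to the DMSO mean, fitted with a four-parameter logistic model.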

K-Ras G12C(GMP-PNP) binding to BRAF RBD, sequence (P01116 other isoform, or with tags, fused parts or gaps G12C): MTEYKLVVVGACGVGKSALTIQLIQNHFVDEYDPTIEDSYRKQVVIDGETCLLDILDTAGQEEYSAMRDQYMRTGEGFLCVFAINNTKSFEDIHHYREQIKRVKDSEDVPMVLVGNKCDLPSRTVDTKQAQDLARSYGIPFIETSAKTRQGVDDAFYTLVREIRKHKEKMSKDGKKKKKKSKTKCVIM
K-Ras G12C(GMP-PNP) binding to BRAF RBD, sequence (P62937 whole entry): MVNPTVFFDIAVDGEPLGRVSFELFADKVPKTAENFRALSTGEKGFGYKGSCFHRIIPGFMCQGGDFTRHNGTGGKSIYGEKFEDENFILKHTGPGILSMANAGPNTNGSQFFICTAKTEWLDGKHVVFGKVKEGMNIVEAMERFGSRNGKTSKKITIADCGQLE

Row | Compound | pIC50 [1] | pEC50 ([3]; Homo sapiens) | pIC50 ([4]; Homo sapiens, NCI-H358, 120 h) | pIC50 ([2]; Homo sapiens, CAPAN-1, 120 h) | pIC50 [2] | pEC50 [3] | pIC50 [4]
1 | CCn1c(-c2cccnc2[C@H](C)OC)c2c3cc(ccc31)-c1csc(n1)C[C@H](NC(=O)C1CC1)C(=O)N1CCC[C@H](N1)C(=O)OCC(C)(C)C2 [Compound A367] | 7.00 to 8.00 | > 5.30 | 7.00 to 8.00 | 6.00 to 7.00 | – | – | –
2 | CCn1c(-c2cc(N3CCN(C)CC3)cnc2[C@H](C)OC)c2c3cc(ccc31)-c1nc(co1)C[C@H](NC(=O)[C@H]1[C@H](C)[C@@H]1C)C(=O)N1CCC[C@H](N1)C(=O)OCC(C)(C)C2 [Compound A391, (1r,2R,3S)—N-((6^3S,4S,Z)-1^1-ethyl-1^2-(2-((S)-1-methoxyethyl)-5-(4-methylpiperazin-1-yl)pyridin-3-yl)-10,10-dimethyl-5,7-dioxo-6^1,6^2,6^3,6^4,6^5,6^6-hexahydro-1^1H-8-oxa-2 (2,4)-oxazola-1 (5,3)-indola-6 (1,3)-pyridazinacycloundecaphane-4-yl)-2,3-dimethylcyclopropane-1-carboxamide] | > 8.00 | – | – | – | 5.00 to 6.00 | > 5.30 | > 8.00
3 | CCn1c(-c2cccnc2[C@H](C)OC)c2c3cc(ccc31)-c1cc(O)cc(c1)C[C@H](NC(=O)[C@H](C(C)C)N(C)C(=O)[C@@H]1CCCC[C@@H]1N)C(=O)N1CCC[C@H](N1)C(=O)OCC(C)(C)C2 [Compound A395] | 6.00 to 7.00 | > 5.30 | > 8.00 | 6.00 to 7.00 | – | – | –
4 | CCn1c(-c2cccnc2[C@H](C)OC)c2c3cc(ccc31)-c1cc(O)cc(c1)C[C@H](NC(=O)[C@H](C(C)C)N(C)C(=O)C1CN3CCCN1CC3)C(=O)N1CCC[C@H](N1)C(=O)OCC(C)(C)C2 (stereo partly drawn) [Compound A404] | 6.00 to 7.00 | > 5.30 | 7.00 to 8.00 | < 5.00 | – | – | –
5 | CCn1c(-c2cccnc2[C@H](C)OC)c2c3cc(ccc31)-c1cc(O)cc(c1)C[C@H](NC(=O)[C@H](C(C)C)N(C)C(=O)C13CC(CO1)C3)C(=O)N1CCC[C@H](N1)C(=O)OCC(C)(C)C2 [Compound A406] | 6.00 to 7.00 | > 5.30 | 7.00 to 8.00 | 6.00 to 7.00 | – | – | –
6 | CCn1c(-c2cccnc2[C@H](C)OC)c2c3cc(ccc31)-c1cc(O)cc(c1)C[C@H](NC(=O)[C@H](C(C)C)N(C)C(=O)C1CCC3(CCOC3)O1)C(=O)N1CCC[C@H](N1)C(=O)OCC(C)(C)C2 (stereo partly drawn) [Compound A409] | 6.00 to 7.00 | > 5.30 | 7.00 to 8.00 | 6.00 to 7.00 | – | – | –
7 | CCn1c(-c2cccnc2[C@H](C)OC)c2c3cc(ccc31)-c1cc(O)cc(c1)C[C@H](NC(=O)[C@H](C(C)C)N(C)C(=O)[C@@H]1[C@H]3CC[C@H](C3)[C@@H]1N)C(=O)N1CCC[C@H](N1)C(=O)OCC(C)(C)C2 [Compound A417] | 7.00 to 8.00 | > 5.30 | 7.00 to 8.00 | 5.00 to 6.00 | – | – | –
8 | CCn1c(-c2cccnc2[C@H](C)OC)c2c3cc(ccc31)-c1csc(n1)C[C@H](NC(=O)[C@H](C(C)C)N(C)C(=O)N1CCO[C@@]3(CCN(C)C3)C1)C(=O)N1CCC[C@H](N1)C(=O)OCC(C)(C)C2 [Compound A436] | 7.00 to 8.00 | > 5.30 | 7.00 to 8.00 | 7.00 to 8.00 | – | – | –

Further lines, with some results ahead:

Row | pIC50 [1] | pEC50 ([3]; Homo sapiens) | pIC50 ([4]; Homo sapiens, NCI-H358, 120 h) | Compound | pIC50 ([2]; Homo sapiens, CAPAN-1, 120 h) | pIC50 [2] | pEC50 [3] | pIC50 [4]
9 | 7.00 to 8.00 | > 5.30 | 7.00 to 8.00 | CCn1c(-c2cccnc2[C@H](C)OC)c2c3cc(ccc31)-c1csc(n1)C[C@H](NC(=O)[C@H](C(C)C)N(C)C(=O)N1CC(N3CCOCC3)C1)C(=O)N1CCC[C@H](N1)C(=O)OCC(C)(C)C2 [Compound A338] | 7.00 to 8.00 | – | – | –
10 | > 8.00 | > 5.30 | > 8.00 | CCN(CC)C(=O)N(C)[C@H](C(=O)N[C@H]1Cc2nc(cs2)-c2ccc3c(c2)c(c(-c2cccnc2[C@H](C)OC)n3CC)CC(C)(C)COC(=O)[C@@H]2CCCN(N2)C1=O)C(C)C [Compound A351] | 6.00 to 7.00 | – | – | –
11 | > 8.00 | > 5.30 | > 8.00 | CCn1c(-c2cccnc2[C@H](C)OC)c2c3cc(ccc31)-c1csc(n1)C[C@H](NC(=O)[C@H](C(C)C)N(C)C(=O)N1CCOC[C@@H]1C)C(=O)N1CCC[C@H](N1)C(=O)OCC(C)(C)C2 [Compound A403] | 7.00 to 8.00 | – | – | –
12 | > 8.00 | > 5.30 | > 8.00 | CCn1c(-c2cccnc2[C@H](C)OC)c2c3cc(ccc31)-c1cc(O)cc(c1)C[C@H](NC(=O)[C@H](C(C)C)N(C)C(=O)C13CCC(CO1)C3)C(=O)N1CCC[C@H](N1)C(=O)OCC(C)(C)C2 [Compound A411] | – | 6.00 to 7.00 | – | –
